Here are results for 5 compounds from ChEMBL document CHEMBL3045855, “ANTIPYRETIC, ANTINOCICEPTIVE AND ANTI-INFLAMMATORY ACTIVITIES OF CERTAIN -OXOBUTANOIC ACID DERIVATIVES” (2005).

Holding throughout (assay type): functional
Experiment [1] relates to Rattus norvegicus. The experiment is described as follows: Antipyretic activity in yeast-fevered Rattus norvegicus Sprague-Dawley (rat) assessed as reduction in rectal temperature at 50 mg/kg, po administered 17 hr post challenge measured after 90 min. More on the design: scale not given: the % may be the effect or the level left.
Experiment [2] deals with Rattus norvegicus. In words: Anti-inflammatory activity in Rattus norvegicus Sprague-Dawley (rat) assessed as inhibition of carrageenan-induced paw edema at 50 mg/kg, po for 7 days challenged with carrageenan 1 hr post last dose on day 7 measured after 2 hr after challenge. Background: In the carrageenan paw model, swelling and tenderness develop within hours.
Experiment [3] deals with Rattus norvegicus. The experiment is described as follows: Antipyretic activity in yeast-fevered Rattus norvegicus Sprague-Dawley (rat) assessed as reduction in rectal temperature at 50 mg/kg, po administered 17 hr post challenge measured after 60 min. The arrangement: scale not given: the % may be the effect or the level left.
Experiment [4] has as its system Mus musculus. The experiment is described as follows: Antinociceptive activity in Mus musculus Swiss (mouse) assessed as protection against acetic acid-induced writhing at 50 mg/kg, po administered 1 hr prior challenge measured for 20 min following acetic acid treatment relative to control. (In general: In writhing tests, fewer writhes than in controls are read as antinociception.)

Experiment [5] concerns Rattus norvegicus. The experiment is described as follows: Anti-inflammatory in Rattus norvegicus Sprague-Dawley (rat) subcutaneously implanted with cotton pellets assessed as inhibition of granuloma growth at 50 mg/kg, po measured after 7 days. Particulars: 168 h.
Experiment [6] deals with Rattus norvegicus. In words: Antipyretic activity in yeast-fevered Rattus norvegicus Sprague-Dawley (rat) assessed as reduction in rectal temperature at 50 mg/kg, po administered 17 hr post challenge measured after 30 min. More on the design: scale not given: the % may be the effect or the level left.
Experiment [7] concerns Rattus norvegicus. The experiment is described as follows: Anti-inflammatory activity in Rattus norvegicus Sprague-Dawley (rat) assessed as inhibition of carrageenan-induced paw edema at 100 mg/kg, po for 7 days challenged with carrageenan 1 hr post last dose on day 7 measured after 2 hr after challenge.
Experiment [8] concerns Rattus norvegicus. The experiment is described as follows: Antipyretic activity in yeast-fevered Rattus norvegicus Sprague-Dawley (rat) assessed as reduction in rectal temperature at 50 mg/kg, po administered 17 hr post challenge measured after 120 min. The arrangement: scale not given: the % may be the effect or the level left.
Experiment [9] deals with Rattus norvegicus. The experiment is described as follows: Antipyretic activity in yeast-fevered Rattus norvegicus Sprague-Dawley (rat) assessed as reduction in rectal temperature at 100 mg/kg, po administered 17 hr post challenge measured after 120 min. More on the design: scale not given: the % may be the effect or the level left.
Experiment [10] deals with Rattus norvegicus. In words: Antipyretic activity in yeast-fevered Rattus norvegicus Sprague-Dawley (rat) assessed as reduction in rectal temperature at 100 mg/kg, po administered 17 hr post challenge measured after 60 min. The arrangement: scale not given: the % may be the effect or the level left.
Experiment [11] has as its system Rattus norvegicus. In words: Antipyretic activity in yeast-fevered Rattus norvegicus Sprague-Dawley (rat) assessed as reduction in rectal temperature at 100 mg/kg, po administered 17 hr post challenge measured after 30 min. More on the design: scale not given: the % may be the effect or the level left.
For experiment [12], the system named is Rattus norvegicus. The experiment is described as follows: Antipyretic activity in yeast-fevered Rattus norvegicus Sprague-Dawley (rat) assessed as reduction in rectal temperature at 100 mg/kg, po administered 17 hr post challenge measured after 90 min. The arrangement: scale not given: the % may be the effect or the level left.
The subject of experiment [13] is Rattus norvegicus. In words: Anti-inflammatory in Rattus norvegicus Sprague-Dawley (rat) subcutaneously implanted with cotton pellets assessed as inhibition of granuloma growth at 25 mg/kg, po measured after 7 days. The note with it: 168 h.
Experiment [14] concerns Rattus norvegicus. The experiment is described as follows: Anti-inflammatory activity in Rattus norvegicus Sprague-Dawley (rat) assessed as inhibition of carrageenan-induced paw edema at 25 mg/kg, po for 7 days challenged with carrageenan 1 hr post last dose on day 7 measured after 2 hr after challenge.
Experiment [15] deals with Mus musculus. In words: Antinociceptive activity in Mus musculus Swiss (mouse) assessed as protection against acetic acid-induced writhing at 25 mg/kg, po administered 1 hr prior challenge measured for 20 min following acetic acid treatment relative to control.

On to `O=C(O)CCC(=O)/C=C/c1ccc2c(c1)OCO2`, for which the Activity in the experiment with Rattus norvegicus [1] worked out at 3.41%; with Rattus norvegicus [3], 4.08%; in the experiment on Mus musculus [4] it was 69.65%; in the experiment with Rattus norvegicus [6], 0.99%; in the experiment with Rattus norvegicus [8] it was 2.49%. Also, the inhibition in vivo at 50 mg/kg with Rattus norvegicus [2] turned out to be 57.5%; in the experiment with Rattus norvegicus [5], 53.3%. In addition, the inhibition in vivo at 100 mg/kg with Rattus norvegicus [7] amounted to 68.8%.
With `NC(=O)c1cc(C(=O)CCC(=O)O)ccc1O`, the Activity in the experiment on Rattus norvegicus [1] is given as 2.71%; in the experiment with Rattus norvegicus [3], 2.11%; with Mus musculus [4], 59.24%; in the experiment on Rattus norvegicus [6] it was 0.86%; in the experiment on Rattus norvegicus [8], 2.44%. The inhibition in vivo at 50 mg/kg worked out at 13.6% in the experiment with Rattus norvegicus [2] and 34.4% in the experiment with Rattus norvegicus [5]. The inhibition in vivo at 100 mg/kg in the experiment with Rattus norvegicus [7] stood at 27.5%.
Take `CC(=O)c1cc(C(=O)CCC(=O)O)ccc1O`: the Activity in the experiment on Rattus norvegicus [1] was 2.63%; in the experiment on Rattus norvegicus [3], 1.8%; in the experiment on Mus musculus [4], 61.47%; with Rattus norvegicus [6], 1.58%; with Rattus norvegicus [8], 2.52%. Further, the values for the inhibition in vivo at 50 mg/kg with Rattus norvegicus [2] and with Rattus norvegicus [5] were 4.11% and 5.2%, respectively. In addition, in the experiment with Rattus norvegicus [7], the inhibition in vivo at 100 mg/kg was determined as 22.4%.
With `CC(=O)Nc1ccc(O)cc1` [ACETAMINOPHEN], the Activity is recorded as 6.06% in the experiment on Rattus norvegicus [9], 5.14% with Rattus norvegicus [10], 4.18% in the experiment with Rattus norvegicus [11] and 5.47% in the experiment on Rattus norvegicus [12].
For `O=C([O-])Cc1ccccc1Nc1c(Cl)cccc1Cl.[Na+]` [DICLOFENAC SODIUM], the inhibition in vivo at 25 mg/kg in the experiment on Rattus norvegicus [13] worked out at 45.4%; in the experiment on Rattus norvegicus [14], 47.6%. Further, the Activity with Mus musculus [15] is listed as 72.58%.

The term inhibition in vivo denotes how much of the control response was suppressed.
